Molecules are shown by their SMILES.

A short description of assay [1]: Interaction with the stable free radical DPPH (reducing activity). The protocol:
Firstly, the synthesized derivatives were evaluated for their ability to interact with the stable free radical 2,2-diphenyl-1-picrylhydrazyl (DPPH) at a concentration of 100 μM after 20 and 60 min (Table 2). DPPH is a valuable tool for studying antioxidant activity. Its reactivity with lipophilic compounds is not solely determined by their lipophilicity. The specific chemical structure of the antioxidant, the solvent used, and other factors can all influence the interaction with DPPH. However, lipophilic compounds tend to be well dissolved in organic solvents reacting with DPPH. Based on previous findings, the antioxidant activity is related with lipophilicity.
(§1) A 10 mM stock solution of the synthesized compounds was prepared in DMSO for the vitro assays. Serial dilutions were carried out to determine the IC50 values. Each experiment was conducted six times, with standard deviations remaining below 10% of the mean.
An in vitro study was conducted as previously described by our group. Free radical scavenging activity was evaluated by measuring absorbance at 517 nm after 20 and 60 min at room temperature.
In general terms: DPPH is a stable violet radical that fades when it is reduced.

The target of a further assay is T1, soybean lipoxygenase (Glycine max, UniProt P08170).
T1 construct: purchased Sigma Aldrich, Merck KGaA, Darmstadt, Germany
T1 sequence (P08170 1-839): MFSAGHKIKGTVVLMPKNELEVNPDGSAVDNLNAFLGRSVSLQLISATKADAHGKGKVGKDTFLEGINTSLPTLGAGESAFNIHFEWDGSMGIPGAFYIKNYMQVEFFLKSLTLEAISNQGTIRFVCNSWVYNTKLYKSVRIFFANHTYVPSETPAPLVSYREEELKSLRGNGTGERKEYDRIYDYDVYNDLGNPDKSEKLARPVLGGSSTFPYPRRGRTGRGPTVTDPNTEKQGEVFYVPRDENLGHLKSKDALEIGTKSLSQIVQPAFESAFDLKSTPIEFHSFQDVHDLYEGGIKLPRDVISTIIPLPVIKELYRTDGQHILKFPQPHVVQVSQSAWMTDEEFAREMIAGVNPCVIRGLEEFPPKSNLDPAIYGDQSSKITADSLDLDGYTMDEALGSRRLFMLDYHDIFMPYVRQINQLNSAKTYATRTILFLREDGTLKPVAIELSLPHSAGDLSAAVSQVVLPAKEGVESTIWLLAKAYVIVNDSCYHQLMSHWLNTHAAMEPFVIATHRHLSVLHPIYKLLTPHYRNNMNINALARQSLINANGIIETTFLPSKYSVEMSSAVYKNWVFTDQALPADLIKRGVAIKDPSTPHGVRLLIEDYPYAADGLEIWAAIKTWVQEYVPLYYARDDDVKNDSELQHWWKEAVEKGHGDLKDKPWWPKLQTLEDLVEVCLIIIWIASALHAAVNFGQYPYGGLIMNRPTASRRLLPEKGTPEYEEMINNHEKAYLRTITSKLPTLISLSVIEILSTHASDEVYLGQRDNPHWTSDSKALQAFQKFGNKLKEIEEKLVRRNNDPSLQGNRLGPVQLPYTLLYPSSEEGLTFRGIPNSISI
The assay can be described thus: Inhibition of soybean lipoxygenase. In kind it is biochemical. As to conditions: for IC50: soybean lipoxygenase, sodium linoleate substrate, read-out: LOX IC50; for inhibition at 100 µM: read-out: LOX % Inhibition 100 μM. Here is the method:
Lipoxygenase (LOX) is responsible for the formation of leukotrienes, important inflammatory mediators. Due to its important role, it is considered as a therapeutic target for inflammatory diseases. Soybean lipoxygenase (LOX), a plant-derived enzyme, has been extensively utilized as a model for investigating the functional and structural properties of the lipoxygenase family, due to its significant homology with human 5-LOX [35, 61].
A 10 mM stock solution of the synthesized compounds was prepared in DMSO for the vitro assays. Serial dilutions were carried out to determine the IC50 values.
Sodium linoleate (0.1 mM), 0.2 mL of soybean lipoxygenase solution (1/9 × 10^−4 w/v in saline), and 10 μL of the test compound stock solution (10 mM in DMSO) were incubated at room temperature. Absorbance was recorded at 234 nm while monitoring the formation of 13-hydroperoxy-linoleic acid. […] To determine IC50 values, various concentrations of the test compounds were applied.

Assay [2] is described as follows: Inhibition of AAPH-induced linoleic acid peroxidation. The protocol: In the lipid peroxidation assay, 2,2′-azobis(2-methylpropionamidine)dihydrochloride (AAPH) was used as a peroxyl radical inducer, and sodium linoleate as a substrate. The formation of 13-hydroperoxy-linoleic acid from linoleic acid was monitored by measuring absorbance at 234 nm. Trolox was used as a reference compound.
as §1
AAPH was employed as an inducer of alkyl peroxyl radicals. In this experiment, the compounds’ ability to inhibit the oxidation of linoleic acid by alkyl peroxyl radicals was assessed by monitoring the change in absorbance at 234 nm due to the formation of 13-hydroperoxy-linoleic acid. Trolox was used as the reference compound [59, 68].

For assay [3], the system named is Valosine-containing protein. On the set-up: method as in PMID 23245311. The note with it: from the literature; cited from earlier work.

By IC50 is commonly meant the concentration that inhibits the measured activity by half. For the compound `Fc1ccc(/C=C/c2nnc(Nc3ccccc3)o2)cc1` [Compound 5c, (E)-5-(4-Fluorostyryl)-N-phenyl-1,3,4-oxadiazol-2-amine], in assay [1], the “RA % 100 μM 20 min” value worked out at 92% and the “RA % 100 μM 60 min” value was determined as 82%. At soybean lipoxygenase, the IC50 is 17 µM. Besides, the “AAPH % Inhibition 100 μM” value in assay [2] was 63%.
`C(=C\c1nnc(Nc2ccccc2)o1)/c1ccccc1` [Compound 5a, (E)-N-Phenyl-5-styryl-1,3,4-oxadiazol-2-amine]: the “RA % 100 μM 60 min” value in assay [1] is 7%. Besides, the concentration for half-maximal inhibition (IC50) on soybean lipoxygenase turned out to be 32.5 µM. For the same compound, the “AAPH % Inhibition 100 μM” value in assay [2] worked out at 17%.
By inhibition is commonly meant the change of the read-out against control, counted positive when it falls. Regarding `O=C(/C=C/c1ccc(F)cc1)NNC(=S)Nc1ccccc1` [Compound 3c, (E)-2-(3-(4-Fluorophenyl)acryloyl)-N-phenylhydrazine-1-carbothioamide], in assay [1], the “RA % 100 μM 20 min” value is given as 90% and the “RA % 100 μM 60 min” value stood at 91%. Further, the inhibition at 100 µM on soybean lipoxygenase was found to be 45%. Besides, the “AAPH % Inhibition 100 μM” value in assay [2] turned out to be 12%.
In the case of `C(=C\c1nnc(Nc2ccccc2)s1)/c1ccccc1` [Compound 6a, (E)-N-Phenyl-5-styryl-1,3,4-thiadiazol-2-amine], in assay [1], the “RA % 100 μM 20 min” value worked out at 98% and the “RA % 100 μM 60 min” value is recorded as 96%. For the same compound, the IC50 on soybean lipoxygenase is 5 µM. Besides, in assay [2], the “AAPH % Inhibition 100 μM” value was found to be 60%.
On to `Sc1nnc(/C=C/c2ccc(Cl)cc2)n1-c1ccccc1` [Compound 4b, (E)-5-(4-Chlorostyryl)-4-phenyl-4H-1,2,4-triazole-3-thiol], for which, in assay [1], the “RA % 100 μM 20 min” value is 33% and the “RA % 100 μM 60 min” value is on record as 88%. For the same compound, at soybean lipoxygenase, the IC50 was 4.5 µM. The “AAPH % Inhibition 100 μM” value in assay [2] is 34%.
For the compound `Clc1ccc(/C=C/c2nnc(Nc3ccccc3)o2)cc1` [Compound 5b, (E)-5-(4-Chlorostyryl)-N-phenyl-1,3,4-oxadiazol-2-amine], in assay [1], the “RA % 100 μM 20 min” value was found to be 65% and the “RA % 100 μM 60 min” value worked out at 72%. For the same compound, the IC50 at soybean lipoxygenase was found to be 18 µM.
In the case of `O=C(/C=C/c1ccc(Cl)cc1)NNC(=S)Nc1ccccc1` [Compound 3b, (E)-2-(3-(4-Chlorophenyl)acryloyl)-N-phenylhydrazine-1-carbothioamide], in assay [1], the “RA % 100 μM 20 min” value was 90% and the “RA % 100 μM 60 min” value is 83%. At soybean lipoxygenase, the inhibition at 100 µM came out at 49%. Further, in assay [2], the “AAPH % Inhibition 100 μM” value worked out at 37%.
For `Sc1nnc(/C=C/c2ccccc2)n1-c1ccccc1` [Compound 4a, (E)-4-Phenyl-5-styryl-4H-1,2,4-triazole-3-thiol], in assay [1], the “RA % 100 μM 20 min” value is 74% and the “RA % 100 μM 60 min” value is given as 93%. In addition, the IC50 at soybean lipoxygenase was determined as 7.5 µM. Moreover, the “AAPH % Inhibition 100 μM” value in assay [2] is on record as 26%.
Turning to `CC(Cc1ccc(O)c(O)c1)C(C)Cc1ccc(O)c(O)c1` (centres unmarked) [NDGA, Nordihydroguaiaretic acid, reference compound], in assay [1], the “RA % 100 μM 20 min” value is 87% and the “RA % 100 μM 60 min” value came to 93%.
For the compound `CC(=O)Oc1ccc(/C=C/c2nnc(S)n2-c2ccccc2)cc1` [Compound 4e, (E)-4-(2-(5-Mercapto-4-phenyl-4H-1,2,4-triazol-3-yl)vinyl)phenyl acetate], in assay [1], the “RA % 100 μM 20 min” value is listed as 96% and the “RA % 100 μM 60 min” value worked out at 93%. The IC50 on soybean lipoxygenase is 5.5 µM. Further, the “AAPH % Inhibition 100 μM” value in assay [2] is recorded as 87%.
For the compound `Cc1c(C)c2c(c(C)c1O)CCC(C)(C(=O)O)O2` (centres unmarked) [Trolox, 6-hydroxy-2,5,7,8-tetramethyl-chroman2-carboxylic acid, reference compound], the “AAPH % Inhibition 100 μM” value in assay [2] is 92%.
For the compound `O=C(/C=C/c1ccc(Br)cc1)NNC(=S)Nc1ccccc1` [Compound 3d, (E)-2-(3-(4-Bromophenyl)acryloyl)-N-phenylhydrazine-1-carbothioamide], in assay [1], the “RA % 100 μM 20 min” value was 29% and the “RA % 100 μM 60 min” value was found to be 97%. On soybean lipoxygenase, the IC50 stood at 8 µM. Moreover, in assay [2], the “AAPH % Inhibition 100 μM” value is recorded as 33%.
With `Sc1nnc(/C=C/c2ccc3c(c2)OCO3)n1-c1ccccc1` [Compound 4f, (E)-5-(2-(Benzo[d][1,3]dioxol-5-yl)vinyl)-4-phenyl-4H-1,2,4-triazole-3-thiol], in assay [1], the “RA % 100 μM 20 min” value was found to be 87% and the “RA % 100 μM 60 min” value was 76%. Further, the IC50 on soybean lipoxygenase was found to be 7.5 µM. Further, the “AAPH % Inhibition 100 μM” value in assay [2] stood at 71%.
`Sc1nnc(/C=C/c2ccc(OCc3ccc(Br)cc3)cc2)n1-c1ccccc1` [Compound 4g, (E)-5-(4-((4-Bromobenzyl)oxy)styryl)-4-phenyl-4H-1,2,4-triazole-3-thiol]: in assay [1], the “RA % 100 μM 20 min” value is reported as 97% and the “RA % 100 μM 60 min” value worked out at 92%. For the same compound, on soybean lipoxygenase, the IC50 is 4.5 µM. Besides, the “AAPH % Inhibition 100 μM” value in assay [2] turned out to be 50%.
For the compound `Sc1nnc(/C=C/c2ccc(Br)cc2)n1-c1ccccc1` [Compound 4d, (E)-5-(4-Bromostyryl)-4-phenyl-4H-1,2,4-triazole-3-thiol], in assay [1], the “RA % 100 μM 20 min” value was 68% and the “RA % 100 μM 60 min” value was found to be 57%. In assay [3], the Valosine-containing protein inhibition entry is recorded as “allosteric Valosine-containing protein inhibitor”. In addition, the IC50 at soybean lipoxygenase amounted to 97.5 µM. In addition, the “AAPH % Inhibition 100 μM” value in assay [2] is listed as 20%.
On to `CC(=O)Oc1ccc(/C=C/C(=O)NNC(=S)Nc2ccccc2)cc1` [Compound 3e, (E)-4-(3-Oxo-3-(2-(phenylcarbamothioyl)hydrazineyl)prop-1-en-1-yl)phenyl acetate], for which, in assay [1], the “RA % 100 μM 20 min” value came out at 83% and the “RA % 100 μM 60 min” value was 21%. Also, the IC50 on soybean lipoxygenase is 9.75 µM. Besides, the “AAPH % Inhibition 100 μM” value in assay [2] stood at 47%.
As to `O=C(/C=C/c1ccc2c(c1)OCO2)NNC(=S)Nc1ccccc1` [Compound 3f, (E)-2-(3-(Benzo[d][1,3]dioxol-5-yl)acryloyl)-N-phenylhydrazine-1-carbothioamide], in assay [1], the “RA % 100 μM 20 min” value is 70% and the “RA % 100 μM 60 min” value is listed as 89%. Further, the IC50 on soybean lipoxygenase was determined as 35 µM. The “AAPH % Inhibition 100 μM” value in assay [2] stood at 58%.
As to `O=C(C=Cc1ccccc1)NNC(=S)Nc1ccccc1` [Compound 3a, 2-Cinnamoyl-N-phenylhydrazine-1-carbothioamide], in assay [1], the “RA % 100 μM 20 min” value was found to be 61% and the “RA % 100 μM 60 min” value came out at 92%. The IC50 on soybean lipoxygenase came to 8.5 µM. Further, the “AAPH % Inhibition 100 μM” value in assay [2] is on record as 67%.
Take `Fc1ccc(/C=C/c2nnc(S)n2-c2ccccc2)cc1` [Compound 4c, (E)-5-(4-Fluorostyryl)-4-phenyl-4H-1,2,4-triazole-3-thiol]: in assay [1], the “RA % 100 μM 20 min” value stood at 82% and the “RA % 100 μM 60 min” value is 93%. Further, the inhibition at 100 µM on soybean lipoxygenase was 35%. For the same compound, in assay [2], the “AAPH % Inhibition 100 μM” value was determined as 94%.
As to `O=C(/C=C/c1ccc(OCc2ccc(Br)cc2)cc1)NNC(=S)Nc1ccccc1` [Compound 3g, (E)-2-(3-(4-((4-Bromobenzyl)oxy)phenyl)acryloyl)-N-phenylhydrazine-1-carbothioamide], in assay [1], the “RA % 100 μM 20 min” value is 98% and the “RA % 100 μM 60 min” value came out at 87%. Further, the IC50 at soybean lipoxygenase came to 10 µM. The “AAPH % Inhibition 100 μM” value in assay [2] was determined as 91%.
